For experiment [1], the target named is T1, Glycogen phosphorylase, muscle form (Oryctolagus cuniculus, UniProt P00489).
T1 sequence (P00489 whole entry): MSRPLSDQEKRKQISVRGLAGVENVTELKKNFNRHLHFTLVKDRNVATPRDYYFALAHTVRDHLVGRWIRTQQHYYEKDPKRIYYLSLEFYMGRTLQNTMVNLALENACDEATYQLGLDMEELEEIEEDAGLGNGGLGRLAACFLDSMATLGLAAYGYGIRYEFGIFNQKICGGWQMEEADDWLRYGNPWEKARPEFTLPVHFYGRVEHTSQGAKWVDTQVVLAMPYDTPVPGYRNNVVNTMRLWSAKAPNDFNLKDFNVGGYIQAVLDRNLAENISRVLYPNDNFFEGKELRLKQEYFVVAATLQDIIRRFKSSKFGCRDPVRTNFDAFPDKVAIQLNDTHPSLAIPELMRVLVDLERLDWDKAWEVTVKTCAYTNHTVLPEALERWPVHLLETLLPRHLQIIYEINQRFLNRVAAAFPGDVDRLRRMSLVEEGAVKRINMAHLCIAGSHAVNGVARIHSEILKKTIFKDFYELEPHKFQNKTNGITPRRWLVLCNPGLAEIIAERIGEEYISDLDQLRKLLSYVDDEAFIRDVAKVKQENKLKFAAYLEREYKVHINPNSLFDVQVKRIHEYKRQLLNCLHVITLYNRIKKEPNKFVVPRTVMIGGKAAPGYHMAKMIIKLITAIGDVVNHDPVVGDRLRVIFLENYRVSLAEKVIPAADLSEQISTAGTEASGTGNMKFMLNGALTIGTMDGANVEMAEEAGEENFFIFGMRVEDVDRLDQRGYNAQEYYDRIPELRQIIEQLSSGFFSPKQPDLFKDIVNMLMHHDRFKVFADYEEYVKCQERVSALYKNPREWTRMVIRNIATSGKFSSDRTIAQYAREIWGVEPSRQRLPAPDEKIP

Experiment [2] has as its target T2, Glycogen phosphorylase, muscle form (Oryctolagus cuniculus) (UniProt P00489).
T2 sequence (whole entry): T1 sequence (P00489 whole entry)
Briefly: Inhibition of rabbit muscle glycogen phosphorylase b at 625 uM.

For experiment [3], the target named is T2, Glycogen phosphorylase, muscle form (Oryctolagus cuniculus). Briefly: Inhibition of rabbit muscle glycogen phosphorylase b.

SMILES strings stand for the structures. Calls of active or inactive are those of the source. The rule behind the calls is not given here.

Consider `OC[C@H]1O[C@@H](c2nc(-c3ccc(O)cc3)n[nH]2)[C@H](O)[C@@H](O)[C@@H]1O`, for which the affinity in experiment [1], expressed as Ki, was 2.9 µM. Consider `CC(C)(C)c1n[nH]c([C@@H]2O[C@H](CO)[C@@H](O)[C@H](O)[C@H]2O)n1`, for which the inhibition entry in experiment [2] is “inactive”.

`O=C(O)c1ccc(-c2n[nH]c([C@@H]3O[C@H](CO)[C@@H](O)[C@H](O)[C@H]3O)n2)cc1`: the inhibition entry in experiment [2] is “inactive”. In experiment [1], `OC[C@H]1O[C@@H](c2nc(-c3ccc(C(F)(F)F)cc3)n[nH]2)[C@H](O)[C@@H](O)[C@@H]1O` came in with a Ki of 111 µM. Same read-out and setting: to `OC[C@H]1O[C@@H](c2nc(-c3ccccn3)n[nH]2)[C@H](O)[C@@H](O)[C@@H]1O` belongs 707 µM. Same read-out and setting: to `Cc1n[nH]c([C@@H]2O[C@H](CO)[C@@H](O)[C@H](O)[C@H]2O)n1` belongs 499 µM. For `Cc1nc([C@@H]2O[C@H](CO)[C@@H](O)[C@H](O)[C@H]2O)no1`, in experiment [3], the inhibition result was “inactive”.

Consider `Cc1ccc(-c2n[nH]c([C@@H]3O[C@H](CO)[C@@H](O)[C@H](O)[C@H]3O)n2)cc1`, for which the affinity in experiment [1] corresponds to a Ki of 1.7 µM. Same read-out and setting: to `O=[N+]([O-])c1ccc(-c2n[nH]c([C@@H]3O[C@H](CO)[C@@H](O)[C@H](O)[C@H]3O)n2)cc1` belongs 33.5 µM; to `OC[C@H]1O[C@@H](c2nc(-c3ccccc3)no2)[C@H](O)[C@@H](O)[C@@H]1O`, 27 µM. Take `O=[N+]([O-])c1cc(-c2n[nH]c([C@@H]3O[C@H](CO)[C@@H](O)[C@H](O)[C@H]3O)n2)cc([N+](=O)[O-])c1`: in experiment [2], the inhibition result was “inactive”. Consider `OC[C@H]1O[C@@H](c2nc(-c3ccc4ccccc4c3)no2)[C@H](O)[C@@H](O)[C@@H]1O`, for which the Ki in experiment [1] was found to be 12 µM. Same read-out and setting: in the case of `OC[C@H]1O[C@@H](c2nc3cc4ccccc4cc3[nH]2)[C@H](O)[C@@H](O)[C@@H]1O` it was 2.1 µM; in that of `Nc1ccc(-c2n[nH]c([C@@H]3O[C@H](CO)[C@@H](O)[C@H](O)[C@H]3O)n2)cc1`, 0.67 µM. `Cc1cc(C)cc(-c2n[nH]c([C@@H]3O[C@H](CO)[C@@H](O)[C@H](O)[C@H]3O)n2)c1` displayed a Ki in experiment [1] of 39.7 µM. Against the preceding molecule, the Ki is about 59-fold higher.

In experiment [1], `CC(C)(C)c1ccc(-c2n[nH]c([C@@H]3O[C@H](CO)[C@@H](O)[C@H](O)[C@H]3O)n2)cc1` yielded a Ki of 778 µM. Compared with the last molecule, the Ki is about 20-fold higher.

The molecule `COc1ccc(-c2n[nH]c([C@@H]3O[C@H](CO)[C@@H](O)[C@H](O)[C@H]3O)n2)cc1` displayed a Ki in experiment [1] of 1.9 µM. Molecule `Nc1cc(N)cc(-c2n[nH]c([C@@H]3O[C@H](CO)[C@@H](O)[C@H](O)[C@H]3O)n2)c1` yielded an inhibitory constant (Ki) in experiment [1] of 14 µM.

Values taken from ChEMBL document CHEMBL3232824, “New synthesis of 3-(β-D-glucopyranosyl)-5-substituted-1,2,4-triazoles, nanomolar inhibitors of glycogen phosphorylase” (Eur J Med Chem, 2014).
